≈ marks a conversion by molar mass, not a printed value. Calls of active or inactive are those of the source. The rule behind the calls is not given here.
Assays:
ECa-109 cell line [1] = assay: Induction of apoptosis in vincristine resistant human Eca-109 cells assessed as late apoptotic cells at 1 uM incubated for 24 hrs by AnnexinV-FITC/PI staining based flow cytometric analysis (reference value: 7.19%); assay type: functional
ECa-109 cell line [2] = assay: Induction of apoptosis in vincristine resistant human Eca-109 cells assessed as late apoptotic cells at 5 uM incubated for 24 hrs by AnnexinV-FITC/PI staining based flow cytometric analysis (reference value: 7.19%); assay type: functional
[3] = biological target: T1, ATP-dependent translocase ABCB1 (Homo sapiens, UniProt P08183); assay: Inhibition of P-gp efflux in vincristine resistant human Eca-109 cells assessed as effect on accumulation of H33342; assay type: cell-based
ECa-109 cell line [4] = assay: Induction of apoptosis in vincristine resistant human Eca-109 cells assessed as viable cells at 5 uM incubated for 24 hrs in presence of vincristine by AnnexinV-FITC/PI staining based flow cytometric analysis (reference value: 89.2%); assay type: functional; details: read-out: Activity
ECa-109 cell line [5] = assay: Induction of apoptosis in vincristine resistant human Eca-109 cells assessed as viable cells at 1 uM incubated for 24 hrs by AnnexinV-FITC/PI staining based flow cytometric analysis (reference value: 90.3%); assay type: functional; details: read-out: Activity
ECa-109 cell line [6] = assay: Induction of apoptosis in vincristine resistant human Eca-109 cells assessed as viable cells at 5 uM incubated for 24 hrs by AnnexinV-FITC/PI staining based flow cytometric analysis (reference value: 90.3%); assay type: functional; details: read-out: Activity
[7] = Apparent oral clearance in Sprague-Dawley rat at 30 mg/kg, po measured upto 24 hrs by UPLC/MS/MS analysis; assay type: ADME, organism-based; details: in vivo
ECa-109 cell line [8] = assay: Induction of apoptosis in vincristine resistant human Eca-109 cells assessed as necrotic cells at 1 uM incubated for 24 hrs by AnnexinV-FITC/PI staining based flow cytometric analysis (reference value: 0.25%); assay type: functional
[9] = Cmax in Sprague-Dawley rat at 3 mg/kg, iv measured upto 24 hrs by UPLC/MS/MS analysis; assay type: ADME, organism-based; set-up: time < 24 hrs, dose 3 mg/kg, route iv; details: in vivo
ECa-109 cell line [10] = assay: Reversal of VCR -resistance in human Eca-109 cells assessed as cell viability at 5 uM incubated for 48 hrs by CCK-8 method (reference value: 6830.0+/-537.0 nM); assay type: functional, cell-based; details: ECa-109, 48 h
[11] = Tmax in Sprague-Dawley rat at 3 mg/kg, iv measured upto 24 hrs by UPLC/MS/MS analysis; assay type: ADME, organism-based; details: in vivo
[12] = Inhibition of clone formation in vincristine resistant human Eca-109 cells at 2 uM incubated for 48 hrs by crystal violet staining based analysis; assay type: functional
ECa-109 cell line [13] = assay: Induction of apoptosis in vincristine resistant human Eca-109 cells assessed as viable cells at 1 uM incubated for 24 hrs in presence of vincristine by AnnexinV-FITC/PI staining based flow cytometric analysis (reference value: 89.2%); assay type: functional; details: read-out: Activity
ECa-109 = assay: Downregulation of P-gp expression in vincristine resistant human Eca-109 cells at 2.5 to 10 uM incubated for 24 hrs by Western blot analysis; assay type: functional, cell-based; details: dose 2.5-10 µM
[14] = AUC (0 to infinity) in Sprague-Dawley rat at 3 mg/kg, iv measured upto 24 hrs by UPLC/MS/MS analysis; assay type: ADME, organism-based; set-up: time < 24 hrs, dose 3 mg/kg, route iv; details: in vivo
[15] = biological target: T1, ATP-dependent translocase ABCB1; assay: Inhibition of P-gp efflux in vincristine resistant human Eca-109 cells assessed as effect on accumulation of doxorubicin; assay type: cell-based
[16] = Solubility of the compound in water at 25 degree C by shake flask method based UV-spectrophotometric method; assay type: physicochemical
ECa-109 cell line [17] = assay: Synergistic antitumor activity against in vincristine resistant p-gp overexpressing human Eca-109 cells xenografted in nude mouse assessed as increase in vacuoles at 30 mg/kg, IG administered every two days for 21 days in presence of vincristine by TUNEL analysis; assay type: functional, organism-based; details: time 21.0 day
[18] = AUMC (0 to infinity) in Sprague-Dawley rat at 3 mg/kg, iv measured upto 24 hrs by UPLC/MS/MS analysis; assay type: ADME, organism-based; details: in vivo
[19] = biological target: T1, ATP-dependent translocase ABCB1; assay: Binding affinity to P-gp in vincristine resistant human Eca-109 cells assessed as stabilization of protein at 67 degree C at 100 uM incubated for 30 mins by thermal shift assay; assay type: cell-based; details: eca-109, 0.5 h
[20] = AUC (0 to infinity) in Sprague-Dawley rat at 30 mg/kg, po measured upto 24 hrs by UPLC/MS/MS analysis; assay type: ADME, organism-based; set-up: time < 24 hrs, dose 30 mg/kg, route po; details: in vivo
[21] = AUC (0 to t) in Sprague-Dawley rat at 3 mg/kg, iv measured upto 24 hrs by UPLC/MS/MS analysis; assay type: ADME, organism-based; set-up: time < 24 hrs, dose 3 mg/kg, route iv; details: in vivo
[22] = biological target: T1, ATP-dependent translocase ABCB1; assay: Inhibition of P-gp efflux in vincristine resistant human Eca-109 cells assessed as increase in rhodamine 123 fluorescence intensity incubated for 3 hrs; assay type: cell-based; details: eca-109, 3 h, dose 0-45 µM
ECa-109 cell line [23] = assay: Induction of apoptosis in vincristine resistant human Eca-109 cells assessed as necrotic cells at 5 uM incubated for 24 hrs in presence of vincristine by AnnexinV-FITC/PI staining based flow cytometric analysis (reference value: 0.35%); assay type: functional
ECa-109 cell line [24] = assay: Cytotoxicity against vincristine resistant human Eca-109 cells incubated for 48 hrs by CCK-8 method; assay type: functional, cell-based; details: ECa-109, 48 h
ECa-109 cell line [25] = assay: Induction of apoptosis in vincristine resistant human Eca-109 cells assessed as late apoptotic cells at 1 uM incubated for 24 hrs in presence of vincristine by AnnexinV-FITC/PI staining based flow cytometric analysis (reference value: 6.01%); assay type: functional
[26] = Tmax in Sprague-Dawley rat at 30 mg/kg, po measured upto 24 hrs by UPLC/MS/MS analysis; assay type: ADME, organism-based; details: in vivo
ECa-109 cell line [27] = assay: Induction of apoptosis in vincristine resistant human Eca-109 cells assessed as early apoptotic cells at 2.5 uM incubated for 24 hrs by AnnexinV-FITC/PI staining based flow cytometric analysis (reference value: 2.30%); assay type: functional
ECa-109 cell line [28] = assay: Reversal of VCR -resistance in human Eca-109 cells assessed as cell viability at 2.5 uM incubated for 48 hrs by CCK-8 method (reference value: 6830.0+/-537.0 nM); assay type: functional, cell-based; details: ECa-109, 48 h
[29] = Toxicity in nude mouse assessed as change in body weight at 30 mg/kg administered every 2 days for 21 days in presence of vincristine; assay type: organism-based; details: in vivo, 48 h, time 2 day
[30] = biological target: T1, ATP-dependent translocase ABCB1; assay: Inhibition of P-gp efflux in vincristine resistant human Eca-109 cells assessed as increase in intracellular accumulation of rhodamine123 at 1 to 5 uM incubated for 1 hr by flow cytometry analysis; assay type: cell-based; details: eca-109, 1 h, dose 1-5 µM
ECa-109 cell line [31] = assay: Induction of apoptosis in vincristine resistant human Eca-109 cells assessed as late apoptotic cells at 2.5 uM incubated for 24 hrs in presence of vincristine by AnnexinV-FITC/PI staining based flow cytometric analysis (reference value: 6.01%); assay type: functional
ECa-109 cell line [32] = assay: Induction of apoptosis in vincristine resistant human Eca-109 cells assessed as early apoptotic cells at 1 uM incubated for 24 hrs in presence of vincristine by AnnexinV-FITC/PI staining based flow cytometric analysis (reference value: 4.43%); assay type: functional
[33] = Terminal elimination half life in Sprague-Dawley rat at 30 mg/kg, po measured upto 24 hrs by UPLC/MS/MS analysis; assay type: ADME, organism-based; details: in vivo, read-out: LambdaZ (converted)

T1 sequence (P08183 whole entry): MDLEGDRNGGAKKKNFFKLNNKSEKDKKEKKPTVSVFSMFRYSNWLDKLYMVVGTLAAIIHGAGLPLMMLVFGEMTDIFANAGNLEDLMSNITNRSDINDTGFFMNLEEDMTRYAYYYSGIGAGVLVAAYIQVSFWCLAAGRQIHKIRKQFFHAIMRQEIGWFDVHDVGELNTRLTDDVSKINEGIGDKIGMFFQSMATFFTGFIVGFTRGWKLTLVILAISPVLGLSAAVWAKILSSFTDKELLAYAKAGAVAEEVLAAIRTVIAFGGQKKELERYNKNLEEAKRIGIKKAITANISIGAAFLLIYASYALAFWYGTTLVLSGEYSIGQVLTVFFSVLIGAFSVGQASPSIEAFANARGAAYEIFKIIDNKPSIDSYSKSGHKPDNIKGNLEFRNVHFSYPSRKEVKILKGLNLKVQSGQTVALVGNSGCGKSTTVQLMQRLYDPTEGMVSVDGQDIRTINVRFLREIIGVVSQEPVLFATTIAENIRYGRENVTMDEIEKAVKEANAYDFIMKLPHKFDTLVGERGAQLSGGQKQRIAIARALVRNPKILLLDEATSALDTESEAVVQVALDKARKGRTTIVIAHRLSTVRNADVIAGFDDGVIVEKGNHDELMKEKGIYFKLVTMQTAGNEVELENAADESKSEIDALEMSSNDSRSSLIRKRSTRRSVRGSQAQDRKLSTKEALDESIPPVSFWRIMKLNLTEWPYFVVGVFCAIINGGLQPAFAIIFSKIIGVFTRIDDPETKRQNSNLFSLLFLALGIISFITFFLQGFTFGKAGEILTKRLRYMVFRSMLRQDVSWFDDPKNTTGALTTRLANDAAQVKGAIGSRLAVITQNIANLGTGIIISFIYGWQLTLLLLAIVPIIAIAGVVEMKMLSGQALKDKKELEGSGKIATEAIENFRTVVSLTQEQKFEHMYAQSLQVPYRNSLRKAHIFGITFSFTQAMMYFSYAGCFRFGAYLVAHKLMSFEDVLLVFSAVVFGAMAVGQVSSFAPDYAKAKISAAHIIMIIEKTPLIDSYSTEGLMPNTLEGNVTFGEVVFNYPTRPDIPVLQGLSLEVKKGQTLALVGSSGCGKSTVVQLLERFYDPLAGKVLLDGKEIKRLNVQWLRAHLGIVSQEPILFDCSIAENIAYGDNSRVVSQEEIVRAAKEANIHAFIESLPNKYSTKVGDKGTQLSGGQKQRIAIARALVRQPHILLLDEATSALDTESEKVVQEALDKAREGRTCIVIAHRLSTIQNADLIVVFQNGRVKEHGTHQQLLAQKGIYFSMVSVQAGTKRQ

COc1cc2c(cc1OC)C(Cc1ccc(OC)c(OCc3ccccc3)c1)N(C)CC2 (centres undefined)
Activity (ECa-109 cell line [1]): 6.12%
Activity (ECa-109 cell line [2]): 6.58%
inhibition (INH) [3]: Active
viability at 5 µM (ECa-109 cell line [4]): 64.5%
viability at 1 µM (ECa-109 cell line [5]): 91.6%
viability at 5 µM (ECa-109 cell line [6]): 90.8%
CL/F [7]: 186 mL/min/kg
Activity (ECa-109 cell line [8]): 0.15%
Cmax [9]: 1570 ng/mL
IC50 (ECa-109 cell line [10]): 9.9 nM
Tmax [11]: 10.2 min
inhibition at 2 µM [12]: 100%
viability at 1 µM (ECa-109 cell line [13]): 76.1%
Activity (ECa-109): inactive
AUC(0-inf) [14]: 2740 ng·h/mL
inhibition (INH) [15]: Active
solubility thermodynamic [16]: 68 µg/mL (≈ 157 µM)
Activity (ECa-109 cell line [17]): Active
AUMC [18]: 7391.35 ng/mL.hr^2
Activity [19]: Active
AUC(0-inf) [20]: 2740 ng·h/mL
AUC(0-t) at 24 h [21]: 2690 ng·h/mL
inhibition (INH) [22]: Dose-Dependent Effect
Activity (ECa-109 cell line [23]): 0.62%
IC50 (ECa-109 cell line [24]): > 100000 nM
Activity (ECa-109 cell line [25]): 8.64%
Tmax [26]: 22.8 min
Activity (ECa-109 cell line [27]): 2.26%
IC50 (ECa-109 cell line [28]): 66.1 nM
Activity [29]: Non-Toxic
inhibition (INH) [30]: Active
Activity (ECa-109 cell line [31]): 11.3%
Activity (ECa-109 cell line [32]): 14.9%
k el at 24 h [33]: 3.33e-05 s⁻¹

From ChEMBL document CHEMBL5247655, “Simplified Derivatives of Tetrandrine as Potent and Specific P-gp Inhibitors to Reverse Multidrug Resistance in Cancer Chemotherapy” (J Med Chem, 2023)
